For nine compounds, TGI results are on record in PubChem BioAssay (NCI).

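Following 48 hours of exposure in 96-well plates, responses at five concentrations were used to interpolate endpoints linearly. TGI: total growth inhibition.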

Common to all, as to assay: NCI tumour cell line growth inhibition, 48 h
Assay [1] relates to OVCAR-5 ovarian.
Assay [2] deals with SR leukemia.
Assay [3] deals with HCT-15 colon.
Assay [4] relates to OVCAR-8 ovarian.
The test system of assay [5] is CAKI-1 renal.
Assay [6] relates to HCC-2998 colon.
In assay [7] the test system is MDA-MB-435.
Assay [8] relates to MDA-N.
The test system of assay [9] is HT29 colon.
For assay [10], the system named is OVCAR-4 ovarian.
The test system of assay [11] is UO-31 renal.
Assay [12] relates to SN12C renal.
Assay [13] has as its system A549 NSCLC.
Assay [14] relates to SF-295 CNS.
Assay [15] concerns HS 578T breast.

Consider `CC1=CC(=O)N(n2c(Cc3ccccc3)n[nH]c2=O)C1=O`, for which the TGI in assay [1], in [2], in assay [3], in assay [4], in [5] and in assay [6] was over 100 µM each time. In addition, the TGI in assay [7], in [8], in [9], in assay [10], in assay [11] and in assay [12] was over 100 µM each time. Also, the TGI in assay [13], in assay [14] and in assay [15] was over 100 µM throughout.

For the compound `CC(C)(C)C1=CC(=C(c2ccc(-c3c4nc(c(-c5ccc(C(=C6C=C(C(C)(C)C)C(=O)C(C(C)(C)C)=C6)c6cc(C(C)(C)C)c(O)c(C(C)(C)C)c6)cc5)c5ccc([nH]5)c(-c5ccc(C(=C6C=C(C(C)(C)C)C(=O)C(C(C)(C)C)=C6)c6cc(C(C)(C)C)c(O)c(C(C)(C)C)c6)cc5)c5nc(c(-c6ccc(C(=C7C=C(C(C)(C)C)C(=O)C(C(C)(C)C)=C7)c7cc(C(C)(C)C)c(O)c(C(C)(C)C)c7)cc6)c6ccc3[nH]6)C=C5)C=C4)cc2)c2cc(C(C)(C)C)c(O)c(C(C)(C)C)c2)C=C(C(C)(C)C)C1=O`, the TGI in [1], in assay [2], in [3], in [4], in [5] and in assay [6] was over 100 µM each time. Moreover, the TGI in assay [7], in assay [8], in assay [9], in [10], in [11] and in assay [12] was over 100 µM in each case. Also, the TGI in [13], in assay [14] and in assay [15] was over 100 µM in each case.

For the compound `Clc1ccc(-c2c(C3=NCCCN3)nnn2-c2ccc(Cl)cc2)cc1`, the TGI in assay [1] was over 89.8 µM; in [2], 40.7 µM; in assay [3], over 100 µM; in [4], over 88.2 µM; in assay [5], over 94.1 µM; in [6], 38.3 µM. Further, the TGI in assay [7] was 35.9 µM; in [8], 39.3 µM; in assay [9] it was 64.4 µM; in assay [10], over 100 µM; in assay [11], 90.4 µM; in assay [12] it was over 100 µM. The TGI in assay [13] was over 100 µM; in assay [14], over 77.2 µM; in assay [15], over 59.5 µM.

Take `O=C1O/C(=C(/Cl)c2cccc3ccccc23)c2ccccc21`: the TGI in assay [1], in [2], in assay [3], in assay [4], in [5] and in assay [6] was over 100 µM each time. The TGI in assay [7], in assay [8], in assay [9], in assay [10], in [11] and in assay [12] was over 100 µM throughout. In addition, the TGI in assay [13], in assay [14] and in assay [15] was over 100 µM throughout.

For `CC(=O)OC1(C)C=CC(=O)C=C1`, the TGI in [1], in [2], in [3], in assay [4], in assay [5] and in [6] was over 100 µM each time. The TGI is over 100 µM in [7]; over 100 µM in [8]; over 100 µM in [9]; over 100 µM in assay [10]; 46.4 µM in assay [11]; over 100 µM in assay [12]. Moreover, the TGI in assay [13], in [14] and in assay [15] was over 100 µM in each case.

As to `O=C1NCCCNCCCNCCCNC(=O)c2cccc1n2`, the TGI in assay [1], in [2], in assay [3], in assay [4], in [5] and in assay [6] was over 100 µM in each case. Besides, the TGI in assay [7], in assay [8], in [9], in assay [10], in assay [11] and in assay [12] was over 100 µM in each case. The TGI in assay [13], in assay [14] and in assay [15] was over 100 µM throughout.

For `COC(=O)C1C(=O)C=CN([C@H](C)c2ccccc2)[C@@H]1Cc1ccc(OC)c(OCc2ccccc2)c1I` (stereo not given in full), the TGI in assay [1] was 92.7 µM; in [2], over 100 µM; in [3] it was 27 µM; in [4], over 100 µM; in assay [5] it was over 100 µM; in [6] it was 32.5 µM. The TGI in assay [7] was 47.8 µM; in assay [8] it was 34.3 µM; in assay [9] it was 26.7 µM; in assay [10] it was 79.9 µM; in assay [11], 26.3 µM; in [12] it was 28.8 µM. Further, the TGI in assay [13] is 71.9 µM; in assay [14], 35.5 µM; in [15], over 100 µM.

Take `Cc1ccc(/C=C2\CCC/C(=C\c3ccc(O)c(CN4CCCCC4)c3)C2=O)cc1`: the TGI turned out to be 38.9 µM in assay [1]; 8.62 µM in [2]; 18.3 µM in assay [3]; 8.37 µM in assay [4]; 33 µM in assay [5]; 15.3 µM in assay [6]. The TGI in assay [7] stood at 25.5 µM; in [8] it was 25.2 µM; in assay [9], 3.78 µM; in [10], 33 µM; in [11] it was 23.3 µM; in [12] it was 26.5 µM. For the same compound, the TGI in [13] is over 49.3 µM; in assay [14] it was 26 µM; in assay [15], 38.5 µM.

As for `CC(=NNC(=S)Nc1ccc(C)cc1)c1cccc(C(C)=NNC(=S)Nc2ccc(C)cc2)n1`, the TGI in [1] was over 100 µM; in assay [2] it was 27.1 µM; in assay [3], over 100 µM; in assay [4] it was 34.5 µM; in [5] it was 40.3 µM; in assay [6] it was over 100 µM. Further, the TGI in [7] was over 100 µM; in assay [8], over 100 µM; in assay [9], over 100 µM; in assay [10], 89.1 µM; in assay [11], over 100 µM; in assay [12], over 100 µM. Besides, the TGI was over 100 µM in [13], 71.7 µM in assay [14] and over 100 µM in [15].
